One series concerns THP-1 blue cells. Kind of series: Cell viability of THP-1 blue cells (Cell Titer-Glo). The format is cell-based, human. The procedure: 200000 cells/well were seeded in 100 μl of culture medium in 96 well flat bottom transparent plates. […] 20 μl of culture media containing (or not) LPS 055:B5 (Sigma) (100 ng/ml final) was added and the plates were incubated for 16 hours at 37° C. in a 5% CO2/air incubator.
Cell culture supernatants were carefully transferred to 96 well-plates for NF-κB activity measurement which is proportional to the level of secreted alkaline phosphatase. Briefly, 100 μl of supernatants were mixed with 150 μl of QuantiBlue (Invivogen) in a 96 well-plates incubated for 3 h at 37° C. before OD measurements at 620 nm with Sunrise microplate reader (Tecan, Mannedorf, Switzerland). Cell viability was determined using Cell Titer-Glo kit as described above.
For orientation: Cellular ATP, detected with luciferase, serves as a proxy for viable cell number.

The test system of the next series is AREc32 cells. Nature of the series: Cell viability of AREc32 cells (ATP quantification, Cell Titer-Glo). Particulars: 24 hours. The format is cell-based. The procedure: To determine the Nrf2 activation the samples were tested on AREc32 cells (seeded in 96 well plates) using 10 independent dilutions (½, ¼, ⅙, 1/10, 1/15, 1/20, 1/25, 1/30, 1/40 and 1/50) and incubated for 24 hours at 37° C. in a 5% CO2/air incubator. The luciferase activity and the cell viability (ATP measurements) were determined using the Luciferase and Cell Titer-Glo kits from Promega.
The cell viability was also measured using a cell Titer-Glo kit (ATP quantification).

Series [1] concerns NF-κB. Nature of the series: NF-κB activity (SEAP and IL-8 production) in HT-29 clone 34 cells. The format is cell-based, human. The procedure:
The human colonic adenocarcinoma HT-29 clone 34 cell line (passage 42-50) are adherent cells stably transfected with a NF-κB/SEAP reporter plasmid. They were cultured in DMEM high glucose (4.5 g/L) (Invitrogen) containing 1% of stable L-glutamine and supplemented with 10% of heat inactivated (one hour at 56° C.) Foetal Calf Serum (FCS) (Bioconcept, Allschwil, Switzerland), 1% of Penicillin/Streptomycin (Sigma) and 500 μg/ml of Geneticin (PAA, Pasching, Austria) at 37° C. in a 5% CO2/air incubator. Culture medium was renewed every two days until the cell monolayer reached ˜90% confluence. Cells were sub-cultured using 1× Trypsin/EDTA (Sigma).
(§1) 10000 cells/well were seeded in 200 μl of culture medium in flat bottom white border 96 well plates (Greiner Bio One, Kremsmuenster, Austria). […] 20 μl of experimental medium containing (or not) LPS 055:B5 or rhTNF-α (100 and 10 ng/ml final, respectively) was added and the plates were incubated for 24 hours at 37° C. in a 5% CO2/air incubator.
Cell culture supernatants were then collected for measurement of NF-κB activity (determination of secreted alkaline phosphatase and IL-8 production) using Phosphalight (Applied Biosystems) and IL-8 singleplex (Meso Scale, Gaithersburg, Md.) kits, respectively.

The subject of the next series is HT-29 clone 34 cells. Nature of the series: Cell viability of HT-29 clone 34 cells (ATP, Cell Titer-Glo). The format is cell-based, human. As to conditions: ATP measurement. On the procedure: as §1
Cell viability was determined by measuring ATP using a Cell Titer-Glo kit (Promega). Briefly, remaining adherent HT-29 clone 34 cells were incubated for 10 min at room temperature under horizontal shaking (250 rpm) with 120 μl of Cell Titer-Glo reagent (pre-diluted twice in 1×PBS) and the luminescence was measured using Polarstar microplate reader (BMG, Offenburg, Germany) for 1000 ms with a gain value set to 3500.

Another series deals with Nrf2. Nature of the series: Nrf2 reporter assay (ARE-luciferase) in AREc32 cells. Type of series: cell-based. As to conditions: 24 hours. In general terms: In a reporter assay the amount or activity of a reporter protein is the signal.
The subject of series [2] is NF-κB. Kind of series: NF-κB activity (secreted alkaline phosphatase) in THP-1 blue cells. The format is cell-based, human. Particulars: THP-1 blue cells stimulated with LPS. On the procedure:
Human monocytes/macrophages THP-1 blue cells (passage 16-20) (Invivogen, Toulouse, France) were cultured in modified RPMI medium (ATCC, Manassas, Va.) containing 1 mM of sodium pyruvate, 2 mM of L-glutamine, 4.5 g/L of glucose and 10 mM of HEPES supplemented with 10% of heat inactivated FCS (Bioconcept), 1% of Penicillin/Streptomycin (Sigma) and 500 μg/ml of Zeocin (Invivogen) at 37° C. in a 5% CO2/air incubator. 200000 cells/well were seeded in 100 μl of culture medium in 96 well flat bottom transparent plates. […] 20 μl of culture media containing (or not) LPS 055:B5 (Sigma) (100 ng/ml final) was added and the plates were incubated for 16 hours at 37° C. in a 5% CO2/air incubator. Cell culture supernatants were carefully transferred to 96 well-plates for NF-κB activity measurement which is proportional to the level of secreted alkaline phosphatase. Briefly, 100 μl of supernatants were mixed with 150 μl of QuantiBlue (Invivogen) in a 96 well-plates incubated for 3 h at 37° C. before OD measurements at 620 nm with Sunrise microplate reader (Tecan, Mannedorf, Switzerland). Cell viability was determined using Cell Titer-Glo kit as described above.

Setting [3] is: HT-29 clone 34 cells stimulated with LPS.

Method for Nrf2: Activation of Nrf2 was measured using an Nrf2 reporter assay. This assay is based on the AREc32 cell line, from CRX biosciences (Dundee, Scotland), a stably transfected MCF7 (breast adenocarcinoma) cell line that contains a luciferase gene construct under the control of the ARE. […] Anti-oxidative molecules such as Tert-butylhydroquinone (TBHQ) induce luciferase transcription via the activation of Nrf2 that binds to ARE. Luciferase activity is determined using a luciferase kit form Promega (Madison, Wis.). The luciferase activity is proportional to the activation of Nrf2. […] The luciferase activity and the cell viability (ATP measurements) were determined using the Luciferase and Cell Titer-Glo kits from Promega. For each run the luciferase activities, measured in Relative Light Units (RLU), of all the wells were normalized with the mean of the luciferase activity of the cells only of all the plates. […] For each sample the Nrf2 activation was calculated as follows: 1) The Nrf2 fold induction: The Nrf2 fold induction is very useful for screening purposes. […] The luciferase content per sample allows a semi quantification of the Nrf2 activation by reflecting the amount of the Nrf2 activating molecule. […] The cell viability was also measured using a cell Titer-Glo kit (ATP quantification).

`CC(=O)/C=C/C(=O)O` [4-oxo-2-pentenoic acid]: the “Doses toxic to cells” value with THP-1 blue cells is listed as “higher than 75 μM”. Moreover, the “Doses at which viability of AREc32 cells was not affected” value in the series with AREc32 cells was “lower than 70 μM”. Moreover, in the series with NF-κB [1] (setting [3]), the “Dose giving the best inhibition of SEAP and IL-8 secretion” value worked out at 50 µM; the “Inhibition of NF-κB activity (in words)” value is recorded as “inhibits NF-κB activity in a dose dependent manner”. In addition, in the series on NF-κB [1] (HT-29 clone 34 cells, no LPS, doses tested 3 to 400 μM), the “NF-κB activity (SEAP or IL-8) in the absence of LPS” value is listed as “no NF-κB activity was observed”. The “Doses giving a decrease in cell viability of HT-29 clone 34 cells” value in the series with HT-29 clone 34 cells is above 50 µM. Also, the “Nrf2 activation (in words)” value in the series on Nrf2 is recorded as “strongly activate Nrf2 in a dose dependent manner”. The “Optimal dose of Nrf2 activation” value with Nrf2 (dose range 0 to 200 μM) is 40 to 50 µM. Further, in the series with NF-κB [2], the “Doses giving strong NF-κB inhibition” value was 40 to 75 µM.
